Source: patent US20230220347A1, “SCALING UP MYOGENIC TISSUE: LATE PASSAGE MYOGENICITY” (Upside Foods, Inc., priority 2021, published 2023)
Entries after “also recorded” stand apart in the source; their conditions may differ.

System: late passage TERT-immortalized 7A chicken fibroblasts stably transfected with ggMYOD
Experiment: Myotube formation (MyHC staining) of late passage 7A TERT ggMYOD fibroblasts in different media
Type: cell-based
Conditions: 7A TERT ggMyoD cells, PDL >100; sodium butyrate 0.1 mM added to ME9
Method: This experiment was designed to assess expression of endogenous downstream myogenic factors (ggMyoG, ggMYMK, and ggMyHC1e) following transfection with a vector encoding ggMYOD in late passage (PDL >100) immortalized fibroblast cells compared to primary fibroblasts. TERT-immortalized 7A fibroblasts were cultured for PDL >100 prior to transfection. For these experiments, a vector including a PGK promoter driving expression of a nucleic acid sequence encoding ggMYOD was transfected into TERT-immortalized 7A chicken fibroblasts (“7A TERT”) or primary fibroblasts using Lipofectamine 3000. Each vector included a puromycin selection cassette to enable selection. Following transfection and selection (0.5 mg/mL puromycin for 4 days), fibroblasts were exposed either to differentiation media (i.e., DMEM/F-12, 2% horse serum) or proliferation media (i.e., ME9; referred to as “undifferentiated” sample (see also culture medias described in FIG. 2)) prior to being assessed for myogenic marker expression using qPCR.
To assess whether the late passage immortalized 7A chicken fibroblasts could be induced to form myotubes, the late passage immortalized 7A chicken fibroblasts stably transfected with ggMYOD (as described above; referred to as 7A TERT ggMYOD) were cultured in media: ME58, ME9, and ME9+0.1 mM sodium butyrate. In FIGS. 13A-C MyHC staining was used to aid identification of myotubes.

CCCC(=O)[O-].[Na+] [sodium butyrate]
differentiation capacity (myotube formation, MyHC staining): dramatic improvement in differentiation capacity; also recorded: significant increase in myogenic differentiation capacity
